From ChEMBL document CHEMBL5649166, “RIP3 induces apoptosis independent of pronecrotic kinase activity” (Mol Cell, 2014) come the findings set out here.

Test [1] has as its target RAC-alpha serine/threonine-protein kinase (Homo sapiens) (UniProt P31749). The test can be described thus: Inhibition of human AKT1 using KGSGSGRPRTSSFAEG as substrate at 1 uM in presence of 32P-ATP by Hotspot assay relative to control; values are per cent of control.
In test [2] the target is T1, Serine/threonine-protein kinase BRSK1 (Homo sapiens) (UniProt Q8TDC3).
T1 sequence (whole entry): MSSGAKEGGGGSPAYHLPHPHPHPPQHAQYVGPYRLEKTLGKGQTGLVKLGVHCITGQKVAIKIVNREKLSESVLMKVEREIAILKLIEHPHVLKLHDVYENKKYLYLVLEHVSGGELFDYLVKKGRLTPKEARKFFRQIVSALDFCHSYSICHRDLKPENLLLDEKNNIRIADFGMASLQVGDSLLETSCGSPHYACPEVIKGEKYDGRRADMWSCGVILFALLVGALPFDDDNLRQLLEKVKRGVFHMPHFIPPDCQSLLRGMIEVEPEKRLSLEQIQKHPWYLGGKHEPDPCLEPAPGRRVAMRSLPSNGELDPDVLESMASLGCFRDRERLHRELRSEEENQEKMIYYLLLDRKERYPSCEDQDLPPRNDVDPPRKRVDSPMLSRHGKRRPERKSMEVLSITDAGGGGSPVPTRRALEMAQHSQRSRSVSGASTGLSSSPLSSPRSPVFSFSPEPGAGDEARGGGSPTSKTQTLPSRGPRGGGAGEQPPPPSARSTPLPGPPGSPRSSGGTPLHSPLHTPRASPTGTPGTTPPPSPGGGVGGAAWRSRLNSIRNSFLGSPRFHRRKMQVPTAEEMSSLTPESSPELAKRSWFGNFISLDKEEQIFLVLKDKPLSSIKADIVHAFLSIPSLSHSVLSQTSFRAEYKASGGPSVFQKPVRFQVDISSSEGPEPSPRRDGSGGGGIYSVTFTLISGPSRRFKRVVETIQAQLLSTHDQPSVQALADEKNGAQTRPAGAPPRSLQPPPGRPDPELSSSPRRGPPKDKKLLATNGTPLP
The test is described as follows: Inhibition of human BRSK1 using KKKVSRSGLYRSPSMPENLNRPR as substrate at 1 uM in presence of 32P-ATP by Hotspot assay relative to control; values are per cent of control.

Test [3] addresses T2, Ephrin type-A receptor 3 (Homo sapiens) (UniProt P29320).
T2 sequence (whole entry): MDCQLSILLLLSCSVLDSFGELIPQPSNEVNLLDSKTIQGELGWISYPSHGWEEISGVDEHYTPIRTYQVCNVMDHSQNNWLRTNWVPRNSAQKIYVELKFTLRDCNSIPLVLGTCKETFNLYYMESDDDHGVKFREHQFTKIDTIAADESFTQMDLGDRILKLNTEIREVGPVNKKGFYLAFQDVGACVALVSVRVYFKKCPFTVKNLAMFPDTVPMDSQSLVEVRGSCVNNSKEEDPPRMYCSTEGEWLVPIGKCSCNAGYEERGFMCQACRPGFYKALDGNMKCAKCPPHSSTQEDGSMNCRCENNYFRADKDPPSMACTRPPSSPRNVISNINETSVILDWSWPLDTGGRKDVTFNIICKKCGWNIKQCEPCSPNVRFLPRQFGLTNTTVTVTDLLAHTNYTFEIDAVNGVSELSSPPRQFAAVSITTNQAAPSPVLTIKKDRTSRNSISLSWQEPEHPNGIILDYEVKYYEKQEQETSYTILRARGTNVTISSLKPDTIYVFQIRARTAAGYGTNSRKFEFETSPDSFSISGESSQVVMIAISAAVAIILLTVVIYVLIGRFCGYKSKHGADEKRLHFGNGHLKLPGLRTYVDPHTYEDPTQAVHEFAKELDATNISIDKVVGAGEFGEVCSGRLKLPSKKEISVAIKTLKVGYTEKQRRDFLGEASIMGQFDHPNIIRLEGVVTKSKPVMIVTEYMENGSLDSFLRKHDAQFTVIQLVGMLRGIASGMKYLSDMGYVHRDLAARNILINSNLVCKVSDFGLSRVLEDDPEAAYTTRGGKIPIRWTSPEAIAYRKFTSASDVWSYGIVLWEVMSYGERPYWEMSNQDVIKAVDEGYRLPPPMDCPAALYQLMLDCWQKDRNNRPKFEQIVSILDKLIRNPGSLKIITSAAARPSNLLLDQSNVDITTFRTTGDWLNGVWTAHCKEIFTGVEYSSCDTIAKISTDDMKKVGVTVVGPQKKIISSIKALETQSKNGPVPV
The test is described as follows: Inhibition of human EPHA3 using poly[Glu:Tyr] (4:1) as substrate at 1 uM in presence of 32P-ATP by Hotspot assay relative to control; values are per cent of control.

Test [4] addresses Calcium/calmodulin-dependent protein kinase type II subunit gamma (Homo sapiens) (UniProt Q13555). The test is described as follows: Inhibition of human CAMK2g using KKLNRTLSFAEPG as substrate at 1 uM in presence of 32P-ATP by Hotspot assay relative to control; values are per cent of control.
Test [5] addresses Fibroblast growth factor receptor 4 (Homo sapiens) (UniProt P22455). The test can be described thus: Inhibition of human FGFR4 using poly[Glu:Tyr] (4:1) as substrate at 1 uM in presence of 32P-ATP by Hotspot assay relative to control; values are per cent of control.
The target in test [6] is T3, Serine/threonine-protein kinase STK11 (Homo sapiens) (UniProt Q15831).
T3 sequence (whole entry): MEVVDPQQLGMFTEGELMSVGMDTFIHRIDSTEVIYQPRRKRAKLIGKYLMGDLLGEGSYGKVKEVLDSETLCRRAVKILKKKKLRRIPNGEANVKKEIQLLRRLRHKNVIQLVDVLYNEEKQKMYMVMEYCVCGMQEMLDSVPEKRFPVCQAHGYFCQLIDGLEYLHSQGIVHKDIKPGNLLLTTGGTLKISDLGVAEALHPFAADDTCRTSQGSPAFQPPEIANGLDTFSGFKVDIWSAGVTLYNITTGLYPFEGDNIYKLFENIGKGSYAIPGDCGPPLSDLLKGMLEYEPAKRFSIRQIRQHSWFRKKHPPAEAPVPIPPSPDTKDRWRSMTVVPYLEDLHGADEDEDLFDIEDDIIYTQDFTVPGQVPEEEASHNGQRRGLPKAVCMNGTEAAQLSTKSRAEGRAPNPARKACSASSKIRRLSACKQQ
The test can be described thus: Inhibition of human LKB1 using LSNLYHQGKFLQTFCGSPLYRRR as substrate at 1 uM in presence of 32P-ATP by Hotspot assay relative to control; values are per cent of control.

For test [7], the target named is Fibroblast growth factor receptor 3 (Homo sapiens) (UniProt P22607). The test is described as follows: Inhibition of human FGFR3 using poly[Glu:Tyr] (4:1) as substrate at 1 uM in presence of 32P-ATP by Hotspot assay relative to control; values are per cent of control.
Chain of Fibroblast growth factor receptor 3 (Homo sapiens) (P22607 23-806 limits assumed): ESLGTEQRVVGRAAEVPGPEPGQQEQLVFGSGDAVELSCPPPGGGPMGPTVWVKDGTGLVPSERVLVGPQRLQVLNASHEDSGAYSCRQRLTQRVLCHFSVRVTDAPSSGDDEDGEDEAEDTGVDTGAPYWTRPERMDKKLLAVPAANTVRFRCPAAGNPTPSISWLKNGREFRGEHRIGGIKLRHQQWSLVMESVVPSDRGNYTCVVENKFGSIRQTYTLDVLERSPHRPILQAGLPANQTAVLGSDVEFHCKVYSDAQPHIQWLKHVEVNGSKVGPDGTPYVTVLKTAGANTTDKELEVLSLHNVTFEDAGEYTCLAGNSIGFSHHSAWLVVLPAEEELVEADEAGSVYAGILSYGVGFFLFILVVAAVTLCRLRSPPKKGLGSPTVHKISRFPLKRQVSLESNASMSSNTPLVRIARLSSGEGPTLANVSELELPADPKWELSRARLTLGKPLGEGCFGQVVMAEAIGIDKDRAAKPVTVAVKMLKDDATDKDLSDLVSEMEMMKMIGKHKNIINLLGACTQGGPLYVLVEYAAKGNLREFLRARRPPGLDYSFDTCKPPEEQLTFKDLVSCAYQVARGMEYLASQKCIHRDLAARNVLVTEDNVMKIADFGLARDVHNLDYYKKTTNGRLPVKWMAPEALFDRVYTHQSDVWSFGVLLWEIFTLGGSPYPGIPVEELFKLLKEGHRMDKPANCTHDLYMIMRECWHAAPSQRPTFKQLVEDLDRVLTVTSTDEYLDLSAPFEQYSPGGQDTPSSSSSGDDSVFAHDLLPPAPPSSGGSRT

Chain of Fibroblast growth factor receptor 4 (Homo sapiens) (P22455 22-802 limits assumed): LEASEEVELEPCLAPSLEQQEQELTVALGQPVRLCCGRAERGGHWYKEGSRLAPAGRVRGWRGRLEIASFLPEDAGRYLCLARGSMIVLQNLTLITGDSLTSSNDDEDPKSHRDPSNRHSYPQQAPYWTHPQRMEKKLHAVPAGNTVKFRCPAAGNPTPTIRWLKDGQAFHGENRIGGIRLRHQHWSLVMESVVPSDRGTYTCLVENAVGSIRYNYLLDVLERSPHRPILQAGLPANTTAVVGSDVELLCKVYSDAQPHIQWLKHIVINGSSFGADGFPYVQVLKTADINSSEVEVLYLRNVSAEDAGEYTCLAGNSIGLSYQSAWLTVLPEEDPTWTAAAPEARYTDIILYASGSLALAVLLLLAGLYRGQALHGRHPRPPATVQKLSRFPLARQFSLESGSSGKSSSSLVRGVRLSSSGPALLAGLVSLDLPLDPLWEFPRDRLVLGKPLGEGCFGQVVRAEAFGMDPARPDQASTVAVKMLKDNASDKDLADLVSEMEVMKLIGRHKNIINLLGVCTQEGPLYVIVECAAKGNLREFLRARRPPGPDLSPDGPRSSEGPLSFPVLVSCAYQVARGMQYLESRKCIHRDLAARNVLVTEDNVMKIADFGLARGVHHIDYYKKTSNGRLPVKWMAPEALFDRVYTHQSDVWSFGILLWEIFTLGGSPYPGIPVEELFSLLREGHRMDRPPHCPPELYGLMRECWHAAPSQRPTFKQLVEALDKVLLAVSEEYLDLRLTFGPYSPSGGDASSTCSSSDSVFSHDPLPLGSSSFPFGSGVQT
Chain of RAC-alpha serine/threonine-protein kinase (Homo sapiens) (P31749 whole entry): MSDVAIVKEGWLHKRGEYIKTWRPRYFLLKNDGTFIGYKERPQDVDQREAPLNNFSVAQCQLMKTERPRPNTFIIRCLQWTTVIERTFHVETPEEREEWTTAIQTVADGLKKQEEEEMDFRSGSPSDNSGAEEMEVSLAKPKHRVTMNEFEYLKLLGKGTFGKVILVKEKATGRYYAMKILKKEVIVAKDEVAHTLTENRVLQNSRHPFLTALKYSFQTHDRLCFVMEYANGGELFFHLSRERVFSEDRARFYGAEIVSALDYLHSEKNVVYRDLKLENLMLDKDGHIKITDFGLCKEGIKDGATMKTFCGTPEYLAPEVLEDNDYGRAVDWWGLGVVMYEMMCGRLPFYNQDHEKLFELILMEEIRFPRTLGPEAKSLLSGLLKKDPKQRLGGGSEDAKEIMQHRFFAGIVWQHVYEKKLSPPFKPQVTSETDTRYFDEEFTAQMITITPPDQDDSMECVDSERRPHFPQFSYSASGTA
Chain of Calcium/calmodulin-dependent protein kinase type II subunit gamma (Homo sapiens) (Q13555 whole entry): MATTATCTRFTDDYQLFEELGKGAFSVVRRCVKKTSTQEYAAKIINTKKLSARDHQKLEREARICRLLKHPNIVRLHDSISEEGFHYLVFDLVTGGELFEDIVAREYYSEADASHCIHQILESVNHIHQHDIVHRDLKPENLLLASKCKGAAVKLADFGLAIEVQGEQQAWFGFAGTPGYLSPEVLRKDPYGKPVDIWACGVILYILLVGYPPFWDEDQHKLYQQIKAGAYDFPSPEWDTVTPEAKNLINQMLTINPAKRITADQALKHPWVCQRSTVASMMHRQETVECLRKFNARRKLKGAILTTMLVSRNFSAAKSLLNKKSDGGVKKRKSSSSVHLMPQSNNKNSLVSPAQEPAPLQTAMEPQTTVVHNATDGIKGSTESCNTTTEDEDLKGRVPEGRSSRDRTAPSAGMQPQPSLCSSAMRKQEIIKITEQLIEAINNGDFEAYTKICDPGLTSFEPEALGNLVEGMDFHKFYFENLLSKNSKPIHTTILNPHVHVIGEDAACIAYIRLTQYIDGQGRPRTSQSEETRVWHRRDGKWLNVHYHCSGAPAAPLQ

As usually defined, the residual activity is the signal under treatment as a percentage of the control signal. For `CC(C)S(=O)(=O)c1ccc2nccc(Nc3ccc4scnc4c3)c2c1`, the residual activity in test [1] was 97.6%; in test [2], 101%; in test [3] it was 92%; in test [4], 98.3%; in test [5] it was 77.6%; in test [6] it was 59%. Moreover, the residual activity in test [7] was found to be 94.3%.

On to `CNC(=O)c1ccc2c(c1)ncn2-c1ccc(CC(=O)OC(C)(C)C)cc1`, for which the residual activity turned out to be 91.3% in test [1]; 96.6% in test [2]; 82.7% in test [3]; 98.5% in test [4]; 93.4% in test [5]; 99% in test [6]. The residual activity in test [7] came to 65.3%.

Regarding `Cc1cc(-c2cnc(N)c3c(-c4ccc5scnc5c4)csc23)n(C)n1`, the residual activity was found to be 98.9% in test [1]; 101% in test [2]; 80% in test [3]; 82.4% in test [4]; 47.4% in test [5]; 96.8% in test [6]. Further, the residual activity in test [7] came to 65%.
